Legend:
Format in all cases: in vivo, mouse
murine Factor 7 mRNA = experiment: Liver Factor 7 mRNA in the FeCl3 induced venous thrombosis model; conditions: Example 15
Protocol: (§1) Three groups of BALB/c mice were injected with 25 mg/kg, 37.5 mg/kg, or 50 mg/kg of ISIS 403102, administered subcutaneously twice a week for 3 weeks. Two control groups of BALB/c mice were treated with PBS, administered subcutaneously twice a week for 3 weeks. Thrombus formation was induced with FeCl3 in half of the mice while the rest of the mice were assayed for tail bleeding. Two days after receiving the last dose of ISIS 403102 or PBS, mice were anesthetized with 150 mg/kg ketamine mixed with 10 mg/kg xylazine administered by intraperitoneal injection. Thrombus formation was induced with FeCl3 in all groups of the VT mice except the first control group.
(§2) In mice undergoing FeCl3 treatment, thrombus formation was induced by applying a piece of filter paper (2×4 mm) pre-saturated with 10% FeCl3 solution directly on the vena cava. After 3 minutes of exposure, the filter paper was removed. Thirty minutes after the filter paper application, a fixed length of the vein containing the thrombus was dissected out for platelet analysis. Liver was collected for RNA analysis.
RNA was extracted from liver tissue for real-time RT-PCR analysis of Factor 7. Results are presented as percent inhibition of Factor 7, relative to PBS control.
ISIS 403102 and warfarin (Coumadin®) were evaluated in BALB/c mice. Four groups of BALB/c mice were treated with 5 mg/kg, 10 mg/kg, 20 mg/kg, or 40 mg/kg of ISIS 403102, administered subcutaneously twice a week for 3 weeks. Two days after receiving the last dose of ISIS 403102, mice were anesthetized with 150 mg/kg ketamine mixed with 10 mg/kg xylazine administered by intraperitoneal injection. A fifth group of BALB/c mice was treated with 3 mg/kg of warfarin, administered intraperioneally daily for 6 days. Four hours after the last dose of warfarin, mice were sacrificed. A control group of BALB/c mice were treated with PBS, administered subcutaneously twice a week for 3 weeks. Two days after the last dose of PBS, mice were anesthetized with 150 mg/kg ketamine mixed with 10 mg/kg xylazine administered by intraperitoneal injection. Thrombus formation was induced with FeCl3 in groups of mice except the first control group.

platelet factor-4 (PF-4) = experiment: Thrombus formation by real-time RT-PCR quantification of PF-4 in the FeCl3 induced venous thrombosis model; conditions: Example 16; dose of 1 mg/kg and higher, intraperitoneally daily for 6 days
Protocol: as §1, §2
Real-time RT-PCR quantification of platelet factor-4 (PF-4) was used to quantify platelets in the vena cava as a measure of thrombus formation. Results are presented as a percentage of PF-4 in ISIS 403102, as compared to the two PBS-treated control groups. […] Therefore, antisense oligonucleotides are useful for inhibiting thrombus and clot formation.
ISIS 403102 and warfarin (Coumadin®) were evaluated in BALB/c mice. Four groups of BALB/c mice were treated with 5 mg/kg, 10 mg/kg, 20 mg/kg, or 40 mg/kg of ISIS 403102, administered subcutaneously twice a week for 3 weeks. Two days after receiving the last dose of ISIS 403102, mice were anesthetized with 150 mg/kg ketamine mixed with 10 mg/kg xylazine administered by intraperitoneal injection. Six additional groups of BALB/c mice was treated with 0.5 mg/kg, 1 mg/kg, 2 mg·kg, 3 mg/kg, 4 mg/kg, or 5 mg/kg of warfarin, administered intraperioneally daily for 6 days. Four hours after the last dose of warfarin, mice were sacrificed. A control group of BALB/c mice were treated with PBS, administered subcutaneously twice a week for 3 weeks. Two days after the last dose of PBS, mice were anesthetized with 150 mg/kg ketamine mixed with 10 mg/kg xylazine administered by intraperitoneal injection. Thrombus formation was induced with FeCl3 in groups of mice except the first control group.
Real-time RT-PCR quantification of platelet factor-4 (PF-4) was used to quantify platelets in the vena cava as a measure of thrombus formation. Results are presented as a percentage of PF-4 in ISIS 403102 or warfarin treated mice, as compared to the two PBS-treated control groups. […] Therefore, ISIS antisense oligonucleotides are useful for inhibiting thrombus and clot formation.

BALB/c mice = experiment: Tail bleeding assay; conditions: Example 17; for Blood (g), tail bleeding: BALB/c mice, blood collected over 40 minutes
Protocol: Mice not receiving treatment with FeCl3 solution were evaluated in a tail bleeding chamber. Mice were placed into the bleeding chamber two days after the final treatment of ISIS 403102 or PBS. Mice were anesthetized in the chamber with isofluorane and a small piece of tail (approximately 4 mm from the tip) was cut with sterile scissors. The cut tail was immediately placed in a 15 mL Falcon tube filled with approximately 10 mL of 0.9% NaCl buffer solution warmed to 37° C. The blood was collected over the course of 40 minutes. The saline filled tubes were weighed both before and after bleeding.
Tail-bleeding was measured to observe whether treatment with ISIS 403102 or warfarin causes internal hemorrhage in mice. ISIS 403102 and warfarin (Coumadin®) were evaluated in the tail bleeding assay. Six groups of BALB/c mice were treated with 1.25 mg/kg, 2.5 mg/kg, 5 mg/kg, 10 mg/kg, 20 mg/kg, or 40 mg/kg of ISIS 403102, administered subcutaneously twice a week for 3 weeks. An additional 6 groups of BALB/c mice were treated with 0.5 mg/kg, 1 mg/kg, 2 mg/kg, 3 mg/kg, 4 mg/kg, and 5 mg/kg of warfarin, administered intraperioneally daily for 6 days. A separate control group of BALB/c mice was treated with PBS, administered subcutaneously twice a week for 3 weeks.
Two days after the final treatment of ISIS 403102, warfarin, or PBS, mice were placed in a tail bleeding chamber. Mice were anesthetized in the chamber with isofluorane and a small piece of tail (approximately 4 mm from the tip) was cut with sterile scissors. The cut tail was immediately placed in a 15 mL Falcon tube filled with approximately 10 mL of 0.9% NaCl buffer solution warmed to 37° C. The blood was collected over the course of 40 minutes. The saline filled tubes were weighed both before and after bleeding.
ISIS 403102 and Apixaban were evaluated in BALB/c mice. In a first group of BALB/c mice, 40 mg/kg of ISIS 403102 was administered subcutaneously twice a week for 3 weeks. An additional 3 groups of BALB/c mice were treated with 5 mg/kg and 10 mg/kg of Apixaban, administered in a single intraperitoneal dose, and 10 mg/kg of Apixaban administered as a single subcutaneous dose. A control group of BALB/c mice was treated with PBS, administered subcutaneously twice a week for 3 weeks.
Two days after the final treatment of ISIS 403102 or PBS, mice were placed in a tail bleeding chamber. Mice from the groups treated with Apixaban were analyzed 30 minutes after the single dose. Mice were anesthetized in the chamber with isofluorane and a small piece of tail (approximately 4 mm from the tip) was cut with sterile scissors. The cut tail was immediately placed in a 15 mL Falcon tube filled with approximately 10 mL of 0.9% NaCl buffer solution warmed to 37° C. The blood was collected over the course of 40 minutes. The saline filled tubes were weighed before and after bleeding.

CC(=O)CC(c1ccccc1)c1c(O)c2ccccc2oc1=O (stereo not shown) [warfarin]
reduction of Factor 7 mRNA as compared to the PBS control (murine Factor 7 mRNA; 3 mg/kg intraperitoneally daily for 6 days): did not result in significant reduction of Factor 7 | % inhibition of Factor 7 mRNA, relative to PBS control (murine Factor 7 mRNA; BALB/c mice liver, 3 mg/kg i.p. daily for 6 days, four hours after last dose): 10% | PF-4 in comparison to the PBS control (platelet factor-4 (PF-4)): reduction of PF-4 | bleeding as compared to PBS control mice (BALB/c mice; 0.5-5 mg/kg intraperitoneally daily for 6 days): did increase bleeding | Blood (g), tail bleeding (BALB/c mice; 0.5 mg/kg i.p. daily for 6 days): 0.16 g | Blood (g), tail bleeding (BALB/c mice; 1 mg/kg i.p. daily for 6 days): 0.28 g | Blood (g), tail bleeding (BALB/c mice; 2 mg/kg i.p. daily for 6 days): 0.58 g | Blood (g), tail bleeding (BALB/c mice; 3 mg/kg i.p. daily for 6 days): 0.78 g | Blood (g), tail bleeding (BALB/c mice; 4 mg/kg i.p. daily for 6 days): 0.66 g | Blood (g), tail bleeding (BALB/c mice; 5 mg/kg i.p. daily for 6 days): 0.93 g

Reference: patent US9029337B2, “Modulation of factor 7 expression” (Isis Pharmaceuticals, Inc., priority 2007, dated 2015)
